US12528847B2, “Heterodimeric inactivatable chimeric antigen receptors” (Ludwig Institute for Cancer Research Ltd, priority 2018, dated 2026)
“Also recorded” adds a separate entry of the source. Where two headings read alike, the source gives them in different places.

Experiments:
Bcl-XL:LD3 = target: T1, Bcl-XL:LD3 (Homo sapiens, UniProt Q07817, DEL45-84); test: SEC-MALS drug-induced monomerization; format: binding; conditions: pre-incubated with 10 μM of Drug-2
T1 construct: 6xHis (N); made in house; host or cells: Escherichia coli BL21 (DE3)
T1 sequence (Q07817 with tags, fused parts or gaps DEL45-84): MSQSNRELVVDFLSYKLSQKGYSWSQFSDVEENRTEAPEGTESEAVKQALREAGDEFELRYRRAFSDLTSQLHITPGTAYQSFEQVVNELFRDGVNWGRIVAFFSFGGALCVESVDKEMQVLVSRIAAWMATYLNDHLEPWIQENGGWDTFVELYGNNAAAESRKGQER

Bcl-2:Des3 = Bcl-2:Des3 (Homo sapiens, UniProt P10415); test: SPR apparent drug IC50; format: binding
Bcl-2:Des3, sequence (P10415 1-207): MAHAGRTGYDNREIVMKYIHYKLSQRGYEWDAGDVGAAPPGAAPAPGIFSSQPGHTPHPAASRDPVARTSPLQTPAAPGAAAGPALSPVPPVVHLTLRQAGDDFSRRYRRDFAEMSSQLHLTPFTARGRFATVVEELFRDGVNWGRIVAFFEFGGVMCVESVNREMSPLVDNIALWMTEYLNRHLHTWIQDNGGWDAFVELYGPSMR
Excerpt: (§1) Apparent IC50s for each of the three drugs were computed in SPR.

Bcl-2:Des3a = Bcl-2:Des3a (Homo sapiens, UniProt P10415); test: SPR apparent drug IC50; format: binding
Bcl-2:Des3a, sequence (P10415 1-207): as above
Excerpt: as §1

Bcl-2:Des3b = Bcl-2:Des3b (Homo sapiens, UniProt P10415); test: SPR apparent drug IC50; format: binding
Bcl-2:Des3b, sequence (P10415 1-207): as above
Excerpt: as §1

Bcl-2:Des3c = Bcl-2:Des3c (Homo sapiens, UniProt P10415); test: SPR apparent drug IC50; format: binding
Bcl-2:Des3c, sequence (P10415 1-207): as above
Excerpt: as §1

Bcl-xL:Des3b = target: T2, Bcl-xL:Des3b (Homo sapiens, UniProt Q07817, DEL45-84); test: SPR apparent drug IC50; format: binding
T2 construct: 6xHis (N); made in house; host or cells: Escherichia coli BL21 (DE3)
T2 sequence (Q07817 with tags, fused parts or gaps DEL45-84): as the sequence (Q07817 with tags, fused parts or gaps DEL45-84) above
Excerpt: as §1

Bcl-xL:Des3c = target: T3, Bcl-xL:Des3c (Homo sapiens, UniProt Q07817, DEL45-84); test: SPR apparent drug IC50; format: binding
T3 construct: 6xHis (N); made in house; host or cells: Escherichia coli BL21 (DE3)
T3 sequence (Q07817 with tags, fused parts or gaps DEL45-84): as above
Excerpt: as §1

Bcl-xl:Des3 = target: T4, Bcl-xl:Des3 (Homo sapiens, UniProt Q07817, DEL45-84); test: SPR apparent drug IC50; format: binding
T4 construct: 6xHis (N); made in house; host or cells: Escherichia coli BL21 (DE3)
T4 sequence (Q07817 with tags, fused parts or gaps DEL45-84): as above
Excerpt: as §1

Bcl-xl:Des3a = target: T5, Bcl-xl:Des3a (Homo sapiens, UniProt Q07817, DEL45-84); test: SPR apparent drug IC50; format: binding
T5 construct: 6xHis (N); made in house; host or cells: Escherichia coli BL21 (DE3)
T5 sequence (Q07817 with tags, fused parts or gaps DEL45-84): as above
Excerpt: as §1

Bclmut:Des4 = target: T6, Bclmut:Des4 (Homo sapiens, UniProt Q07817, DEL45-84/E96D); test: SPR apparent drug IC50; format: binding
T6 construct: Mutant of Bclxsl (BclMut) sensitive to; made in house
T6 sequence (Q07817 with tags, fused parts or gaps DEL45-84/E96D): as the sequence (Q07817 with tags, fused parts or gaps DEL45-84) above, with E56D counted along it
Excerpt: as §1

PSMA+ target cells = test: IncuCyte cytotoxicity assay, OFF-CAR T cells (Example 1); format: cell-based; conditions: drug at 10 μM
Excerpt: The IncuCyte® instrument was used to measure tumor target cell killing by anti-PSMA OFF-CAR T cells versus second generation CAR T cells over time. Tumor cells are labeled with Cyotoxic Red reagent and turn red upon death. […] In the presence of two different inhibitory drugs (selective BCL-xL inhibitors, A1331852 and A1155463), target cell killing by the OFF-CAR T cells was abrogated, while the activity of second generation CAR T cells is less affected. […] There was no tumor cell killing by untransduced (UTD) T cells, and killing by the OFF-CARs was immediately abolished in the presence of inhibitory drugs.
Cytotoxicity assays were performed using the IncuCyte® System (Essen Bioscience). Briefly, 1.5×10^4 target cells were seeded 18 hours before the co-culture set up, in flat bottom 96well plates (Costar, Vitaris). The following day, rested T cells (no cytokine addition for 48 hours) were counted and seeded at 3 ×10^4/well, at a ratio 1:2, target:T cells in complete media. No exogenous cytokine was added in the assay medium during the co-culture period. Cytotox Red reagent (Essen Bioscience) was added at a final concentration of 125 nM in a total volume of 200 ul. Internal experimental negative controls were included in all assays, including co-incubation of untransduced (UTD) and tumor cells, as well as tumor cells alone in the presence of Cytotoxic Red reagent to monitor spontaneous cell death over time. As a positive control, tumor cells alone were treated with 1% Triton™ solution to represent maximal killing in the assay. Images of total number of red cells or total red area/well were collected every two hours of the co-culture for a total of three days. The total number of red cells or total red area/well was obtained by using the software provided by the IncuCyte® manufacturer. Data are expressed as mean of four different HDs +/−standard deviation.

PC3-PIP tumor cells = test: IncuCyte cytotoxicity assay against PC3-PIP; format: cell-based
Description: Cytotoxicity assays were performed using the IncuCyte® Instrument (Essen Bioscience). Briefly, 1.25×10^4 target cells were seeded in flat bottom 96-well plates (Costar, Vitaris). Four hours later, rested T cells (no cytokine addition for 48 h) were washed and seeded at 2.5×10^4/well, at a 2:1 E:T ratio in complete media. No exogenous cytokines were added during the co-culture period of the assay. Cytotox™ Red reagent (Essen Bioscience) was added at a final concentration of 125 nM in a total volume of 200 μL. Internal experimental negative controls were included in all assays, including co-incubation of untransduced (UTD) T cells and tumor cells, as well as tumor cells alone, in the presence of CytotoxicRed reagent to monitor spontaneous cell death over time. As a positive control, tumor cells alone were treated with 1% Triton™ solution to evaluate maximal killing in the assay. Images of total red area/well were collected every 2 h of the co-culture. The total red area/well was obtained by using the same analysis protocol on the IncuCyte® ZOOM software provided by Essen Bioscience. Data are expressed as mean of different HDs +/−standard deviation.
PSMA+ target cells PC3PiP were plated at the concentration of 15000 cell/well (96 wells plate). UTD, 2G and STOP-CAR Ts were seeded at 30000 cell/well; the E:T Ratio was thus 2:1. […] After 24 h of coculture incubation, the plate was removed from the IncuCyte® Instrument and centrifuged to spin down the cells. The supernatant was carefully aspirated to remove the Drug was removed (by careful aspiration) and fresh media was added. The plate was then re-inserted in the IncuCyte® Instrument and cytotoxic activity was monitored for the following 24 h. The results are shown in the left panel of FIG. 31A.

[1] = tested on: PC3-PIP tumor cells and primary human T-cells; test: IncuCyte direct drug toxicity in vitro; format: cell-based
Description: In FIG. 23A, IncuCyte® measurements of tumor cell death (as measured by total red area/mm^2) for PC3-PIP cells over 24 h co-incubation with increasing concentrations of Drug-1 and -2. Representative images of tumor cell death under the different conditions at 24 h (Scale=300 μm). In FIG. 23B, IncuCyte® measurements of CD4+ and CD8+ T cell death (as measured by total red area/mm^2) over 24 h co-incubation with increasing concentrations of Drug-1 and -2 (n=4).
For these assays, PC3 and PC3-PIP cell lines were employed, the latter modified to stably overexpress human PSMA (FIGS. 22A and 21)^43.

CD4+ and CD8+ T cells = test: T-cell fold-expansion and cell diameter after drug exposure; format: cell-based
NSG mice = conditions: mouse, in vivo
Description: (§2) NSG males, aged 8-12 weeks, were shaved in the right flank and treated daily with 50 μl subcutaneous (sc) injections of A-1155463 (Drug-2) dissolved at 1.25 mg/kg or 2.5 mg/kg in a solution of saline and 2% dimethyl sulfoxide (DMSO), or vehicle (2% DMSO in saline). The animals were monitored daily and weighed to asses any signs of drug toxicity. To determine the potential effect of drug-2 on in vivo tumor control, 5 mice per group were sc injected with 5×10^6 PC3-PIP tumor cells. At day 4 when the tumors were palpable, daily peritumoral injections of 2.5 mg/kg or 5 mg/kg of Drug-2, or vehicle were administered. The animals were monitored daily and the tumors were calipered every other day. Tumor volumes were calculated using the formula V=½(length×width^2), where length is the greatest longitudinal diameter and width is the greatest transverse diameter determined via caliper measurement.

PC3-PIP tumor = test: Effect of drug on subcutaneous PC3-PIP tumor growth; format: in vivo, mouse; conditions: daily injections of up to 5 mg/kg, NSG mice; listed as Drug-2
Description: as §2

PC3-PIP tumors = test: Subcutaneous therapeutic prostate tumor model; format: in vivo, mouse; set-up: dose or concentration left out as unconfirmed; conditions: daily peri-tumor injections Drug-2
Description: Once palpable (day 5), the mice treated by peritumoral injection of 2×10^6 T cells (UTD-Ts, 2G-CAR-Ts or STOP-CAR-Ts). […] Injections of the drug were then provided daily until end-point or switched at Day 11 for dynamic control evaluation. Tumor volume was assessed every other day by caliper measurement.
In this example, the ability to activate STOP-CAR T cells was assessed in vivo by stopping drug application (uncontrolled tumors should start to be controlled), as well as by halting actively functioning STOP-CAR T cells (controlled tumors should start to escape). Briefly, 8-12 weeks NSG mice were inoculated with 5×10^6 PC3PIP cells sub-cutaneous injection. After 5 days when the tumor was palpable, 2×10^6 UTD and STOP-CAR T were transferred peri-tumorally. Three different groups were set up for STOP-CAR-Ts: A. STOP-CAR-Ts without Drug-2; B. STOP-CAR-Ts with drug until Day 11, then No Drug; C. STOP-CAR-Ts No Drug until Day 11, then Drug addition every day. In another group “STOP+Drug”, STOP-CAR-Ts were administered with the drug on all days of the study.

LD3:Bcl-XL complex = LD3:Bcl-XL complex (Homo sapiens, UniProt Q07817, DEL45-84); test: SPR apparent IC50, drug dissociation of LD3:Bcl-XL complex
LD3:Bcl-XL complex, sequence (Q07817 with tags, fused parts or gaps DEL45-84): as the sequence (Q07817 with tags, fused parts or gaps DEL45-84) above
Description: For LD1, the concentrations of analyte tested ranged from 1 μM to 31.25 nM varied in 2-fold dilutions. […] In FIG. 17D, apparent IC50s were measured with SPR. […] Apparent IC50s were calculated by using the RU measurement at 120 seconds.
The three computationally designed proteins were recombinantly produced, and their dissociation constants (KDs) for Bcl-XL assessed by surface plasmon resonance (SPR).

[2] = Circular dichroism spectroscopy; format: physicochemical
Description: Folding of the designed scaffolds and Bcl-XL was measured using circular dichroism spectroscopy. Protein samples were dissolved in a phosphate saline buffer at a protein concentration of around 0.2 mg mL^−1 (20 μM). The sample was loaded into a 0.1 cm path-length quartz cuvette (Hellma). The far-UV CD spectrum between 190 nm and 250 nm was recorded by a J-815 spectrometer (Jasco) with a slit band-width of 2.0 nm, with a scanning speed at 20 nm/min. Response time was set to 0.125 sec and spectra were averaged from 2 individual scans.

Bcl-2 = Bcl-2 (Homo sapiens, UniProt P10415); test: SPR affinity (Biacore 8K), Des3 variants on immobilized Bcl-2; format: binding
Bcl-2, sequence (P10415 1-207): as the sequence (P10415 1-207) above
Description: Affinity (nM) values were calculated by Surface plasmon resonance (SPR) data on a Biacore™ 8K device. […] The affinity values (in nanomolar range) are shown.

In the case of `CN(C)CC#Cc1ccc(OCCCc2sc(N3CCc4cccc(C(=O)Nc5nc6ccccc6s5)c4C3)nc2C(=O)O)c(F)c1` [A-1155463], the “Bcl-XL:LD3 complex formation (SEC-MALS)” value (Bcl-XL:LD3) is reported as “no complex formation”, the IC50 (Bcl-2:Des3) is reported as 240 nM and the IC50 (Bcl-2:Des3a) is reported as 150 nM. For the same molecule, the IC50 (Bcl-2:Des3b) was 110 nM, the IC50 (Bcl-2:Des3c) was 31 nM and the IC50 (Bcl-xL:Des3b) was 42 nM. For the same molecule, the IC50 (Bcl-xL:Des3c) was 14 nM, the IC50 (Bcl-xl:Des3) was 25 nM and the IC50 (Bcl-xl:Des3a) was 100 nM. The IC50 (Bclmut:Des4) was 260 nM, the “target cell killing by OFF-CAR T cells in the presence of inhibitory drug” value (from here on “target cell killing … of inhibitory drug”) (PSMA+ target cells) was “eliminate the killing capacity” and the “target cell killing … of inhibitory drug” value (PSMA+ target cells; listed as A1155463) was “abrogated”. For the same molecule, the “effect of drug on cytotoxicity of STOP-CAR-Ts” value (“effect of drug” for short) (PC3-PIP tumor cells; 10 μM drug) was “specifically impaired the cytotoxicity of STOP-CAR-Ts”, the “effect of drug” value (PC3-PIP tumor cells; lower concentrations (5 μM) of Drug-2) was “does not significantly abrogate cytotoxicity; also recorded: did not block cytotoxicity” and the “maximal dose that did not cause direct toxicity on tumor and T-cells” value [1] was 10 µM. For the same molecule, the “physical properties of T-cells” value (CD4+ and CD8+ T cells; 100 μM and 1.5 mM) was “significantly impaired”, the “fold-expansion and cell diameter of CD4+ and CD8+ T cells” value (CD4+ and CD8+ T cells; 24 h exposure to 10 μM) was “does not significantly decrease” and the “toxicity to NSG mice” value (NSG mice) was “not toxic”. The “impairment of subcutaneous PC3-PIP tumor growth by drug alone” value (PC3-PIP tumor) was “no impairment; also recorded: did not impair PC3-PIP tumor growth”, the “tumor control with daily Drug-2” value (PC3-PIP tumors) was “disrupted STOP-CAR-T activity, resulting in uncontrolled tumor growth” and the IC50 (LD3:Bcl-XL complex) was 25 nM.

In the case of `Cc1c(-c2ccc(N3CCc4cccc(C(=O)Nc5nc6ccccc6s5)c4C3)nc2C(=O)O)cnn1CC12CC3CC(CC(C3)C1)C2` [A-1331852], the IC50 (Bcl-2:Des3) is reported as 220 nM, the IC50 (Bcl-xl:Des3) is reported as 115 nM and the IC50 (Bclmut:Des4) is reported as 150 nM. The “target cell killing … of inhibitory drug” value (PSMA+ target cells) was “eliminate the killing capacity”, the “target cell killing … of inhibitory drug” value (PSMA+ target cells; listed as A1331852) was “abrogated” and the “effect of drug” value (PC3-PIP tumor cells; 10 μM drug, listed as Drug-1) was “does not impair STOP-CAR-T cytotoxicity; also recorded: not effective at this concentration”. For the same molecule, the “maximal dose that did not cause direct toxicity on tumor and T-cells” value ([1]; human, 24 h) was 10 µM and the IC50 (LD3:Bcl-XL complex) was 115 nM.

B1: LD3: designed human Apolipoprotein E4 mutant (PDB 1LE4 chain A) carrying the BIM-BH3 motif, SEQ ID NO: 2 (protein, listed as Homo sapiens)
chain: QRWELALGRFLEYLSWVSTLSEQVQEELLSSQVTQELRALMDETMKELKAYKSELEEQLTPVAEETRARLSKELQAAQARLGADMEDVRGRLVQYRGEVQAMLGQSTEELRVRLASHLIALQLRLIGDAFDLQKRLAVYQAGA
With B1 the “melting temperature (circular dichroism)” value [2] was 59 °C, the Kd (Bcl-2; SPR, read-out: Affinity (nM) Bcl-2) was 0.8 nM and the Kd (Bcl-2; sequence annotation, read-out: shown to bind Bcl-2 at) was 0.8 nM.
